# Measurements as given in patent US20100190710A1, “IL-23 RECEPTOR ANTAGONISTS AND USES THEREOF” (Valorisation HSJ, Societe en Commandite, priority 2007, published 2010).
# Peptide text beside a SMILES is read from it.
# Tested on: PMA-induced dermatitis (ear)
# Format: in vivo, CD-1 mice
# Source text: FIGS. 10A and 10B are a series of images and a graph showing efficacy of topical anti-IL-23R peptides in treating PMA-induced dermatitis. PMA-induced dermatitis is often utilized as a model of chronic (and scaling) dermatitis, reminiscent of psoriatic dermatitis. […] FIG. 10B is a graph showing the differences in weight (mg) of ear punches with control ears untreated with PMA. […] FIGS. 11A to 11C are a series of images and graphs showing dose-response to topical administration of peptide 2309 in PMA-induced dermatitis. FIG. 11A is a photographic representation of dose-dependent effects of topical administration of peptide 2309 (mixed in PEG-400) on PMA-induced dermatitis in CD-1 mice. Concentrations of peptide 2309≧100 nM show significant efficacy.
compound,measurement,setting,value
"CSCC[C@@H](N)C(=O)N[C@H](CCC(=O)O)C(=O)N[C@H](CCC(=O)O)C(=O)N[C@H](CO)C(=O)N[C@H](CCCCN)C(=O)N[C@H](CCC(N)=O)C(=O)N[C@H](CC(C)C)C(=O)N[C@H](CCC(N)=O)C(=O)N[C@H](CC(C)C)C(=O)O [Peptide 2309, MEESKQLQL] (HELM PEPTIDE1{[dM].[dE].[dE].[dS].[dK].[dQ].[dL].[dQ].[dL]}$$$$V2.0; N-terminus and C-terminus assumed)",EC50,"mouse, in vivo",~0.05 µM
same,transdermal penetration,"mouse, in vivo",effective transdermal penetration
same,PMA-induced edema (weight of ear punches),topical dose-response (FIG. 11B),dose-dependent reduction in PMA-induced edema
same,capillary leak (Evan's blue technique),topical dose-response (FIG. 11C),diminished capillary leak
same,concentrations showing significant efficacy,topical in PEG-400 (FIG. 11A),≥ 100 nM
